Measured values taken from patent US10953029B2, “4′-Substituted nucleoside reverse transcriptase inhibitors and preparations thereof” (Merck Sharp & Dohme Corp., priority 2015, dated 2021).
Like-named read-outs stand apart in the source and are kept apart here.

How the values were obtained:
[1] = target: T1, adenosine deaminase (ADA) type 1 (Homo sapiens, UniProt P00813); experiment: Adenosine Deaminase (ADA) Half-Life; type: in vitro ADME; conditions: human ADA type 1 (adenosine deaminase) in Tris-HCl buffer, time for 50% conversion to inosine product, Tris-HCl buffer pH 7.5, 40° C., LCMS
T1 sequence (P00813 1-363): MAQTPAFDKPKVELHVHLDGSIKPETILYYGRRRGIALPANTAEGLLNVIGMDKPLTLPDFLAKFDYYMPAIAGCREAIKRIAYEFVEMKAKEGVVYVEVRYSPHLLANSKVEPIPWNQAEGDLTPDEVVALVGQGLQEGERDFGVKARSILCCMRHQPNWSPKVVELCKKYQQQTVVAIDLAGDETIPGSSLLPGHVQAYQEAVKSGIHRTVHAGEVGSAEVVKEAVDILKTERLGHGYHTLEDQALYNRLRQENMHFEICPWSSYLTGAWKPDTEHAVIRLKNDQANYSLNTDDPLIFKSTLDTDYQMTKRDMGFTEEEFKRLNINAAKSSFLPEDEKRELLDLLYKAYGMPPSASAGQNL
Procedure: The data in Table 4 was generated by testing the reactivity of the substrate compound with human ADA type 1 in the presence of Tris-HCl buffer (pH 7.5) at 40° C. and monitoring by LCMS for consumption of starting material. The time necessary for 50% conversion to the corresponding inosine product is noted as the T1/2 in Table 4. It is known that deamination by adenosine deaminase decreases the therapeutic potential of adenosine-like nucleoside inhibitors especially in vivo (see references below). […] It is possible that compounds that are more resistant to ADA will have better pharmacokinetic properties.

[2] = target: T2, HIV-1 RT enzyme (Human immunodeficiency virus type 1 group M subtype B, UniProt P04585); experiment: RT Polymerase Assay; type: biochemical
T2 construct: Full-length wild-type and 2 mutant RT proteins were expressed in Escherichia coli BL21(DE3) cells and purified; made in house; host or cells: Escherichia coli BL21(DE3)
Procedure: Full-length wild-type and 2 mutant RT proteins were expressed in Escherichia coli BL21(DE3) cells and purified. Briefly, the heterodimeric nucleic acid substrate used in the HIV-1 RT polymerase reactions was generated by annealing biotinylated DNA primer to a 500 nucleotide RNA template. The HIV-1 RT enzyme (final concentration of 50 pM) was combined with an inhibitor compound or DMSO (10% DMSO in the final reaction mixture) in assay buffer (62.5 mM Tris-HCl, pH 7.8, 1.25 mM dithiothreitol, 7.5 mM MgCl2, 100 mM KCl, 0.03% CHAPS, 0.125 mM EGTA). This mixture was pre-incubated for 30 minutes at room temperature in microtiter plates. The polymerization reaction was initiated by the addition of template/primer substrate (final concentration: 16.6 nM) and dNTPs (final concentration: 2 μM dCTP, dGTP, dATP, and 66.6 nM Ru-dUTP). After 90 min of incubation at 37° C., reactions were quenched by the addition of EDTA (25 mM). The resulting mixture was incubated for an additional 5 minutes at room temperature followed by transferring the solution (50 μL) to blocked avidin plate from Meso Scale Discovery (MSD). The mixtures were incubated at room temperature for 60 min prior to the quantification of the reaction product via an ECL 6000 imager instrument.

[3] = system: wild-type HIV-1-GFP virus; experiment: Antiviral Persistence in Human Peripheral Blood Mononuclear Cells (PBMC); type: cell-based; conditions: Human immunodeficiency virus 1, PBMC
Procedure: PBMCs were obtained from Biological Specialty Corporation, activated with 5 μg/ml PHA-P (Sigma L1668) for 72 hrs, and then washed with fresh medium. Following activation, PBMCs were cultured in media containing 10 IU/ml IL-2 (Roche 11011456001). Cells were treated with a titration of compound for 6 or 24 hrs and washed with fresh medium. To evaluate persistence of antiviral activity following wash-out, PBMCs were maintained for either 24 h or 72 h and then infected by adding wild-type HIV-1-GFP virus (17 μL/well) to the plates and incubating at 37° C./5% CO2/90% relative humidity. Infected cells were quantified at 24 h post-infection by counting the number of green cells in each well using an Acumen eX3 scanner. EC50 values in Table 3 were calculated by non-linear 4-parameter curve fitting.
The antiviral persistence assay is meant to assess for the persistence of antiviral activity upon removal of the nucleoside. […] The publication AIDS Research and Therapy, 2009, 6:5, highlights the value of antiviral persistence.

[4] = system: HIV-1 (H9IIIB virus); experiment: Viking Assay: antiviral potency in a multiple round HIV-1 infection assay (MT4-GFP cells); type: cell-based; conditions: Human immunodeficiency virus 1, 10% normal human serum, read-out: Viking, EC50 (10% NHS)
Procedure: Assessing antiviral potency in a multiple round HIV-1 infection assay. HIV-1 replication was monitored using MT4-gag-GFP clone D3 (hereafter designate MT4-GFP), which are MT-4 cells modified to harbor a GFP reporter gene, the expression of which is dependent on the HIV-1 expressed proteins tat and rev. Productive infection of an MT4-GFP cell with HIV-1 results in GFP expression approximately 24 h post-infection.
MT4-GFP cells were maintained at 37° C./5% CO2/90% relative humidity in RPMI 1640 supplemented with 10% fetal bovine serum, 100 U/mL penicillin/streptomycin, and 400 μg/mL G418 to maintain the reporter gene. For infections, MT4-GFP cells were placed in the same medium lacking G418 and infected overnight with H9IIIB virus at an approximate multiplicity of infection of 0.01 in the same incubation conditions. Cells were then washed and re-suspended in either RPMI 1640 containing 10% or 50% normal human serum at 1.6×10^5 cells/mL (10% or 50% NHS conditions) or in 100% normal human serum at 2×10^5 cells/mL (100% NHS conditions). […]
Infected cells were quantified at two time points, ˜48 h and ˜72 h post-infection, by counting the number of green cells in each well using an Acumen eX3 scanner. […] Inhibition of R0 is calculated for each well, and EC50s determined by non-linear 4-parameter curve fitting.

[5] = system: wild-type and multi-drug resistant HIV-1 strains; conditions: cited from earlier work

Row | Compound | half-life [1] | EC50 ([3]; 24 h, read-out: EC50 24 h) | EC50 ([3]; 72 h, read-out: EC50 72 h) | EC50 [4] | also measured
1 | C#C[C@]1(CO)O[C@@H](n2cnc3c(N)ncnc32)C[C@@H]1O [EDA, (2R,3S,5R)-5-(6-amino-9H-purin-9-yl)-2-ethynyl-2-(hydroxymethyl)tetrahydrofuran-3-ol] | < 1 h |  |  |  | 
2 | Nc1ncnc2c1ncn2[C@H]1C[C@H](O)[C@@H](CO)O1 [Deoxy- adenosine, deoxyadenosine] | < 0.167 h |  |  |  | 
3 | C#C[C@]1(COP(=O)(O)OP(=O)(O)OP(=O)(O)O)O[C@@H](n2cc(F)c3c(N)nc(Cl)nc32)C[C@@H]1O [Example 2, ammonium ((2R,3S,5R)-5-(4-amino-2-chloro-5-fluoro-7H-pyrrolo[2,3-d]pyrimidin-7-yl)-2-ethynyl-3-hydroxytetrahydrofuran-2-yl)methyl triphosphate] |  |  |  |  | IC50 [2]: 490 nM
4 | C#C[C@]1(CO)O[C@@H](n2cc(F)c3c(N)nc(Cl)nc32)C[C@@H]1O [Example 1, (2R,3S,5R)-5-(4-amino-2-chloro-5-fluoro-7H-pyrrolo[2,3-d]pyrimidin-7-yl)-2-ethynyl-2-(hydroxymethyl)tetrahydrofuran-3-ol] |  | 0.38 nM | 3.8 nM | 1.2 nM | half-life ([1]; value given as symbol): > 240 h
5 | C#C[C@]1(CO)O[C@@H](n2cnc3c(N)nc(F)nc32)C[C@@H]1O [EFdA, (2R,3S,5R)-5-(6-amino-2-fluoro-9H-purin-9-yl)-2-ethynyl-2-(hydroxymethyl)tetrahydrofuran-3-ol] |  |  |  |  | antiviral activity [5]: potent antiviral activity
6 | Cc1cn([C@H]2C[C@H](N=[N+]=[N-])[C@@H](CO)O2)c(=O)[nH]c1=O [AZT, 3′-azido-3′-deoxythymidine] |  | 19 nM | 68 nM | 37 nM | 
